Laboratory results from patent US20230085307A1, “PYRIDAZINONE COMPOUND AND HERBICIDE” (NISSAN CHEMICAL CORPORATION, priority 2019, published 2023).

test system: Japanese bulrush; assay: Test Example 1: herbicidal activity, application before weed generation under submerged conditions (Table 16, symbol B); assay type: in vivo, Japanese bulrush (Schoenoplectus juncoides); conditions: 320 g/ha applied herbicide
Procedure, shortened: (§1)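 Submerged Wagner pots (alluvial soil, 4 cm water) sown with weed seeds and planted with 2.5-leaf rice seedlings; emulsifiable concentrate diluted in water applied to water surface on sowing day. Held in greenhouse at 25-30 °C; injury scored 0-5 by herbicidal rate after three weeks.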

Compound | Herbicidal effect on B: Japanese bulrush (grade 0-5)
Cc1nn(C)c(=O)c(-c2c(-c3ccc(OC4CC4)cc3)sc3ccc(F)cc23)c1O [2-217] | 5 (Herbicidal rate of 90% or more (almost completely withered))
CCCC(=O)Oc1c(C)nn(C)c(=O)c1-c1c(-c2ccc(OC3CC3)cc2)sc2ccc(F)cc12 [2-218] | 5 (Herbicidal rate of 90% or more (almost completely withered))
CCCC(=O)Oc1c(C)nn(C)c(=O)c1-c1c(-c2cccc(OCC(C)C)c2)sc2ccc(F)cc12 [2-222] | 4 (Herbicidal rate of 70% or more and less than 90%)

test system: barnyard grass; assay: Test Example 5: herbicidal effect by foliage application, plastic box (Table 20, symbol H); assay type: in vivo, barnyard grass (Echinochloa crus-galli); conditions: foliage application, 320 g/ha, evaluated three weeks after application
Procedure, shortened: (§2)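 Foliar spray test: emulsion formulation diluted in water to a set application rate, sprayed onto 14-day-old plants raised in diluvial soil at 25° C to 30° C under glass. Both herbicidal effect and crop effect rated visually three weeks later.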

Compound | herbicidal effect on H: barnyard grass (criteria 0-5)
Cc1nn(C)c(=O)c(-c2c(-c3ccc(OC4CC4)cc3)sc3ccc(F)cc23)c1O [2-217] | 5 (Herbicidal rate of 90% or more (almost completely withered))
CCCC(=O)Oc1c(C)nn(C)c(=O)c1-c1c(-c2ccc(OC3CC3)cc2)sc2ccc(F)cc12 [2-218] | 4 (Herbicidal rate of 70% or more and less than 90%)
CCCC(=O)Oc1c(C)nn(C)c(=O)c1-c1c(-c2cccc(OCC(C)C)c2)sc2ccc(F)cc12 [2-222] | 5 (Herbicidal rate of 90% or more (almost completely withered))

test system: barnyard grass; assay: Test Example 3: herbicidal effect by foliage application, Wagner pot (Table 18, symbol H); assay type: in vivo, barnyard grass (Echinochloa crus-galli); conditions: amount of applied herbicide 320 g/ha
Procedure, shortened: (§3)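 Plants were sown in alluvial soil held under 0.1–0.5 cm standing water and grown 14 days in a greenhouse at 25–30 °C. An emulsifiable formulation, water-diluted to the set dose, was then sprayed onto the foliage, and effects were scored three weeks later using previously defined criteria.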

Compound | herbicidal effect on H: barnyard grass
Cc1nn(C)c(=O)c(-c2c(-c3ccc(OC4CC4)cc3)sc3ccc(F)cc23)c1O [2-217] | 5 (Herbicidal rate of 90% or more (almost completely withered))
CCCC(=O)Oc1c(C)nn(C)c(=O)c1-c1c(-c2ccc(OC3CC3)cc2)sc2ccc(F)cc12 [2-218] | 5 (Herbicidal rate of 90% or more (almost completely withered))
CCCC(=O)Oc1c(C)nn(C)c(=O)c1-c1c(-c2cccc(OCC(C)C)c2)sc2ccc(F)cc12 [2-222] | 5 (Herbicidal rate of 90% or more (almost completely withered))

test system: oval-leafed pondweed; assay: Test Example 2: herbicidal activity, application during weed generation under submerged conditions (Table 17, symbol C); assay type: in vivo, oval-leafed pondweed (Monochoria vaginalis); conditions: AAH 320 g/ha; application during weed generation, submerged conditions
Procedure, shortened: (§4)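 In this pot test, flooded alluvial soil (water depth 4 cm) holds all three species sown as a mixture. Once seedlings have one to two leaves, the compound's emulsion, thinned with water to the intended dose, is poured on the water; grading follows after three weeks on the earlier criteria.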

Compound | herbicidal effect rating, C: oval-leafed pondweed
Cc1nn(C)c(=O)c(-c2c(-c3ccc(OC4CC4)cc3)sc3ccc(F)cc23)c1O [2-217] | 0 (Herbicidal rate of 5% or less (almost no effect))
CCCC(=O)Oc1c(C)nn(C)c(=O)c1-c1c(-c2ccc(OC3CC3)cc2)sc2ccc(F)cc12 [2-218] | 3 (Herbicidal rate of 40% or more and less than 70%)
CCCC(=O)Oc1c(C)nn(C)c(=O)c1-c1c(-c2cccc(OCC(C)C)c2)sc2ccc(F)cc12 [2-222] | 3 (Herbicidal rate of 40% or more and less than 70%)

test system: late watergrass; assay: Test Example 2: herbicidal activity, application during weed generation under submerged conditions (Table 17, symbol A); assay type: in vivo, late watergrass (Echinochloa oryzicola); conditions: AAH 320 g/ha; application during weed generation, submerged conditions
Procedure, shortened: as §4

Compound | herbicidal effect rating, A: late watergrass
Cc1nn(C)c(=O)c(-c2c(-c3ccc(OC4CC4)cc3)sc3ccc(F)cc23)c1O [2-217] | 3 (Herbicidal rate of 40% or more and less than 70%)
CCCC(=O)Oc1c(C)nn(C)c(=O)c1-c1c(-c2ccc(OC3CC3)cc2)sc2ccc(F)cc12 [2-218] | 1 (Herbicidal rate of 5% or more and less than 20%)
CCCC(=O)Oc1c(C)nn(C)c(=O)c1-c1c(-c2cccc(OCC(C)C)c2)sc2ccc(F)cc12 [2-222] | 2 (Herbicidal rate of 20% or more and less than 40%)

test system: blackgrass; assay: Test Example 5: herbicidal effect by foliage application, plastic box (Table 20, symbol J); assay type: in vivo, blackgrass (Alopecurus myosuroides); conditions: foliage application, 320 g/ha, evaluated three weeks after application
Procedure, shortened: as §2

Compound | herbicidal effect on J: blackgrass (criteria 0-5)
Cc1nn(C)c(=O)c(-c2c(-c3ccc(OC4CC4)cc3)sc3ccc(F)cc23)c1O [2-217] | 1 (Herbicidal rate of 5% or more and less than 20%)
CCCC(=O)Oc1c(C)nn(C)c(=O)c1-c1c(-c2ccc(OC3CC3)cc2)sc2ccc(F)cc12 [2-218] | 1 (Herbicidal rate of 5% or more and less than 20%)
CCCC(=O)Oc1c(C)nn(C)c(=O)c1-c1c(-c2cccc(OCC(C)C)c2)sc2ccc(F)cc12 [2-222] | 4 (Herbicidal rate of 70% or more and less than 90%)

test system: green foxtail; assay: Test Example 5: herbicidal effect by foliage application, plastic box (Table 20, symbol G); assay type: in vivo, green foxtail (Setaria viridis); conditions: foliage application, 320 g/ha, evaluated three weeks after application
Procedure, shortened: as §2

Compound | herbicidal effect on G: green foxtail (criteria 0-5)
Cc1nn(C)c(=O)c(-c2c(-c3ccc(OC4CC4)cc3)sc3ccc(F)cc23)c1O [2-217] | 4 (Herbicidal rate of 70% or more and less than 90%)
CCCC(=O)Oc1c(C)nn(C)c(=O)c1-c1c(-c2ccc(OC3CC3)cc2)sc2ccc(F)cc12 [2-218] | 2 (Herbicidal rate of 20% or more and less than 40%)
CCCC(=O)Oc1c(C)nn(C)c(=O)c1-c1c(-c2cccc(OCC(C)C)c2)sc2ccc(F)cc12 [2-222] | 5 (Herbicidal rate of 90% or more (almost completely withered))

test system: redroot pigweed; assay: Test Example 4: herbicidal effect by soil treatment (Table 19, symbol N); assay type: in vivo, redroot pigweed (Amaranthus retroflexus); conditions: amount of applied herbicide 320 g/ha
Procedure, shortened: (§5)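 Herbicidal effect was rated 3 weeks after treatment, using the scoring criteria of an earlier test. The compound, formulated as an emulsion and diluted in water to a set herbicide amount, had been sprayed uniformly on soil over freshly sown seeds. Growth took place in a greenhouse at 25° C. to 30° C.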

Compound | N: redroot pigweed, herbicidal effect rating | herbicidal effect on N: redroot pigweed
Cc1nn(C)c(=O)c(-c2c(-c3ccc(OC4CC4)cc3)sc3ccc(F)cc23)c1O [2-217] | 4 (Herbicidal rate of 70% or more and less than 90%) | 
CCCC(=O)Oc1c(C)nn(C)c(=O)c1-c1c(-c2ccc(OC3CC3)cc2)sc2ccc(F)cc12 [2-218] | 1 (Herbicidal rate of 5% or more and less than 20%) | 
CCCC(=O)Oc1c(C)nn(C)c(=O)c1-c1c(-c2cccc(OCC(C)C)c2)sc2ccc(F)cc12 [2-222] |  | 5 (Herbicidal rate of 90% or more (almost completely withered))

test system: late watergrass; assay: Test Example 1: herbicidal activity, application before weed generation under submerged conditions (Table 16, symbol A); assay type: in vivo, late watergrass (Echinochloa oryzicola); conditions: 320 g/ha applied herbicide
Procedure, shortened: as §1

Compound | Herbicidal effect on A: late watergrass (grade 0-5)
Cc1nn(C)c(=O)c(-c2c(-c3ccc(OC4CC4)cc3)sc3ccc(F)cc23)c1O [2-217] | 5 (Herbicidal rate of 90% or more (almost completely withered))
CCCC(=O)Oc1c(C)nn(C)c(=O)c1-c1c(-c2ccc(OC3CC3)cc2)sc2ccc(F)cc12 [2-218] | 5 (Herbicidal rate of 90% or more (almost completely withered))
CCCC(=O)Oc1c(C)nn(C)c(=O)c1-c1c(-c2cccc(OCC(C)C)c2)sc2ccc(F)cc12 [2-222] | 5 (Herbicidal rate of 90% or more (almost completely withered))

test system: Italian ryegrass; assay: Test Example 5: herbicidal effect by foliage application, plastic box (Table 20, symbol K); assay type: in vivo, Italian ryegrass (Lolium multiflorum); conditions: foliage application, 320 g/ha, evaluated three weeks after application
Procedure, shortened: as §2

Compound | herbicidal effect on K: Italian ryegrass (criteria 0-5)
Cc1nn(C)c(=O)c(-c2c(-c3ccc(OC4CC4)cc3)sc3ccc(F)cc23)c1O [2-217] | 5 (Herbicidal rate of 90% or more (almost completely withered))
CCCC(=O)Oc1c(C)nn(C)c(=O)c1-c1c(-c2ccc(OC3CC3)cc2)sc2ccc(F)cc12 [2-218] | 4 (Herbicidal rate of 70% or more and less than 90%)
CCCC(=O)Oc1c(C)nn(C)c(=O)c1-c1c(-c2cccc(OCC(C)C)c2)sc2ccc(F)cc12 [2-222] | 4 (Herbicidal rate of 70% or more and less than 90%)

test system: wild oat; assay: Test Example 5: herbicidal effect by foliage application, plastic box (Table 20, symbol I); assay type: in vivo, wild oat (Avena fatua); conditions: foliage application, 320 g/ha, evaluated three weeks after application
Procedure, shortened: as §2

Compound | herbicidal effect on I: wild oat (criteria 0-5)
Cc1nn(C)c(=O)c(-c2c(-c3ccc(OC4CC4)cc3)sc3ccc(F)cc23)c1O [2-217] | 4 (Herbicidal rate of 70% or more and less than 90%)
CCCC(=O)Oc1c(C)nn(C)c(=O)c1-c1c(-c2ccc(OC3CC3)cc2)sc2ccc(F)cc12 [2-218] | 3 (Herbicidal rate of 40% or more and less than 70%)
CCCC(=O)Oc1c(C)nn(C)c(=O)c1-c1c(-c2cccc(OCC(C)C)c2)sc2ccc(F)cc12 [2-222] | 3 (Herbicidal rate of 40% or more and less than 70%)

test system: Italian ryegrass; assay: Test Example 4: herbicidal effect by soil treatment (Table 19, symbol K); assay type: in vivo, Italian ryegrass (Lolium multiflorum); conditions: amount of applied herbicide 320 g/ha
Procedure, shortened: as §5

Compound | K: Italian ryegrass, herbicidal effect rating | herbicidal effect on K: Italian ryegrass
Cc1nn(C)c(=O)c(-c2c(-c3ccc(OC4CC4)cc3)sc3ccc(F)cc23)c1O [2-217] | 4 (Herbicidal rate of 70% or more and less than 90%) | 
CCCC(=O)Oc1c(C)nn(C)c(=O)c1-c1c(-c2ccc(OC3CC3)cc2)sc2ccc(F)cc12 [2-218] | 4 (Herbicidal rate of 70% or more and less than 90%) | 
CCCC(=O)Oc1c(C)nn(C)c(=O)c1-c1c(-c2cccc(OCC(C)C)c2)sc2ccc(F)cc12 [2-222] |  | 2 (Herbicidal rate of 20% or more and less than 40%)

test system: redroot pigweed; assay: Test Example 5: herbicidal effect by foliage application, plastic box (Table 20, symbol N); assay type: in vivo, redroot pigweed (Amaranthus retroflexus); conditions: foliage application, 320 g/ha, evaluated three weeks after application
Procedure, shortened: as §2

Compound | herbicidal effect on N: redroot pigweed (criteria 0-5)
Cc1nn(C)c(=O)c(-c2c(-c3ccc(OC4CC4)cc3)sc3ccc(F)cc23)c1O [2-217] | 5 (Herbicidal rate of 90% or more (almost completely withered))
CCCC(=O)Oc1c(C)nn(C)c(=O)c1-c1c(-c2ccc(OC3CC3)cc2)sc2ccc(F)cc12 [2-218] | 2 (Herbicidal rate of 20% or more and less than 40%)
CCCC(=O)Oc1c(C)nn(C)c(=O)c1-c1c(-c2cccc(OCC(C)C)c2)sc2ccc(F)cc12 [2-222] | 5 (Herbicidal rate of 90% or more (almost completely withered))

test system: rice flat sedge; assay: Test Example 3: herbicidal effect by foliage application, Wagner pot (Table 18, symbol E); assay type: in vivo, rice flat sedge (Cyperus iria); conditions: amount of applied herbicide 320 g/ha
Procedure, shortened: as §3

Compound | herbicidal effect on E: rice flat sedge
Cc1nn(C)c(=O)c(-c2c(-c3ccc(OC4CC4)cc3)sc3ccc(F)cc23)c1O [2-217] | 5 (Herbicidal rate of 90% or more (almost completely withered))
CCCC(=O)Oc1c(C)nn(C)c(=O)c1-c1c(-c2ccc(OC3CC3)cc2)sc2ccc(F)cc12 [2-218] | 5 (Herbicidal rate of 90% or more (almost completely withered))
CCCC(=O)Oc1c(C)nn(C)c(=O)c1-c1c(-c2cccc(OCC(C)C)c2)sc2ccc(F)cc12 [2-222] | 4 (Herbicidal rate of 70% or more and less than 90%)

test system: windgrass; assay: Test Example 4: herbicidal effect by soil treatment (Table 19, symbol L); assay type: in vivo, windgrass (Apera spica-venti); conditions: amount of applied herbicide 320 g/ha
Procedure, shortened: as §5

Compound | L: windgrass, herbicidal effect rating | herbicidal effect on L: windgrass
Cc1nn(C)c(=O)c(-c2c(-c3ccc(OC4CC4)cc3)sc3ccc(F)cc23)c1O [2-217] | 0 (Herbicidal rate of 5% or less (almost no effect)) | 
CCCC(=O)Oc1c(C)nn(C)c(=O)c1-c1c(-c2ccc(OC3CC3)cc2)sc2ccc(F)cc12 [2-218] | 0 (Herbicidal rate of 5% or less (almost no effect)) | 
CCCC(=O)Oc1c(C)nn(C)c(=O)c1-c1c(-c2cccc(OCC(C)C)c2)sc2ccc(F)cc12 [2-222] |  | 4 (Herbicidal rate of 70% or more and less than 90%)

test system: Chinese sprangletop; assay: Test Example 3: herbicidal effect by foliage application, Wagner pot (Table 18, symbol D); assay type: in vivo, chinese sprangletop (Leptochloa chinensis); conditions: amount of applied herbicide 320 g/ha
Procedure, shortened: as §3

Compound | herbicidal effect on D: Chinese sprangletop
Cc1nn(C)c(=O)c(-c2c(-c3ccc(OC4CC4)cc3)sc3ccc(F)cc23)c1O [2-217] | 5 (Herbicidal rate of 90% or more (almost completely withered))
CCCC(=O)Oc1c(C)nn(C)c(=O)c1-c1c(-c2ccc(OC3CC3)cc2)sc2ccc(F)cc12 [2-218] | 3 (Herbicidal rate of 40% or more and less than 70%)
CCCC(=O)Oc1c(C)nn(C)c(=O)c1-c1c(-c2cccc(OCC(C)C)c2)sc2ccc(F)cc12 [2-222] | 5 (Herbicidal rate of 90% or more (almost completely withered))
